Test results reported in the supplement of paper PMC10307832.

Tests used:
Assay in all cases: relative viability (nuclei count vs DMSO), 5 days (fraction); higher = more cells survive
Bleomycin + OSI-027 = compound: CC1=C(N=C(N=C1N)[C@H](CC(=O)N)NC[C@@H](C(=O)N)N)C(=O)N[C@@H]([C@H](C2=CN=CN2)OC3C(C(C(C(O3)CO)O)O)OC4C(C(C(C(O4)CO)O)OC(=O)N)O)C(=O)N[C@H](C)[C@H]([C@H](C)C(=O)N[C@@H]([C@@H](C)O)C(=O)NCCC5=NC(=CS5)C6=NC(=CS6)C(=O)NCCC[S+](C)C)O [Bleomycin] + COc1cccc2cc(-c3nc([C@H]4CC[C@H](C(=O)O)CC4)n4ncnc(N)c34)[nH]c12 [OSI-027] (partner 0.5 µM); conditions: main component drawn
Summary of the method: (§1)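 Five library-drug doses in √10 steps were combined with a fixed anchor-drug dose, or a single drug was given alone, by pin tool to lung cancer cell lines in 1536-well plates the day after seeding. Nuclei were stained and counted after 5 days. Relative viability is the nuclei count in treated wells over that in vehicle wells, taken as the median of duplicate plates.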

Bleomycin + Crizotinib = compound: CC1=C(N=C(N=C1N)[C@H](CC(=O)N)NC[C@@H](C(=O)N)N)C(=O)N[C@@H]([C@H](C2=CN=CN2)OC3C(C(C(C(O3)CO)O)O)OC4C(C(C(C(O4)CO)O)OC(=O)N)O)C(=O)N[C@H](C)[C@H]([C@H](C)C(=O)N[C@@H]([C@@H](C)O)C(=O)NCCC5=NC(=CS5)C6=NC(=CS6)C(=O)NCCC[S+](C)C)O [Bleomycin] + C[C@@H](Oc1cc(-c2cnn(C3CCNCC3)c2)cnc1N)c1c(Cl)ccc(F)c1Cl [Crizotinib] (partner 1 µM); conditions: main component drawn
Summary of the method: as §1

Bleomycin + Decitabine = compound: CC1=C(N=C(N=C1N)[C@H](CC(=O)N)NC[C@@H](C(=O)N)N)C(=O)N[C@@H]([C@H](C2=CN=CN2)OC3C(C(C(C(O3)CO)O)O)OC4C(C(C(C(O4)CO)O)OC(=O)N)O)C(=O)N[C@H](C)[C@H]([C@H](C)C(=O)N[C@@H]([C@@H](C)O)C(=O)NCCC5=NC(=CS5)C6=NC(=CS6)C(=O)NCCC[S+](C)C)O [Bleomycin] + Nc1ncn([C@H]2C[C@H](O)[C@@H](CO)O2)c(=O)n1 [Decitabine] (partner 2 µM); conditions: main component drawn
Summary of the method: as §1

Etoposide + OSI-027 = compound: COc1cc([C@@H]2c3cc4c(cc3[C@@H](O[C@@H]3O[C@@H]5CO[C@@H](C)O[C@H]5[C@H](O)[C@H]3O)[C@H]3COC(=O)[C@H]23)OCO4)cc(OC)c1O [Etoposide] + COc1cccc2cc(-c3nc([C@H]4CC[C@H](C(=O)O)CC4)n4ncnc(N)c34)[nH]c12 [OSI-027] (partner 0.5 µM)
Summary of the method: as §1

| Cell Line | relative viability (Bleomycin + OSI-027; first compound 0.01 µM) | relative viability (Bleomycin + OSI-027; first compound 0.03162 µM) | relative viability (Bleomycin + OSI-027; first compound 0.1 µM) | relative viability (Bleomycin + OSI-027; first compound 0.3162 µM) | relative viability (Bleomycin + OSI-027; first compound 1 µM) | relative viability (Bleomycin + Crizotinib; first compound 0.01 µM) | relative viability (Bleomycin + Crizotinib; first compound 0.03162 µM) | relative viability (Bleomycin + Crizotinib; first compound 0.1 µM) | relative viability (Bleomycin + Crizotinib; first compound 0.3162 µM) | relative viability (Bleomycin + Crizotinib; first compound 1 µM) | relative viability (Bleomycin + Decitabine; first compound 0.01 µM) | relative viability (Bleomycin + Decitabine; first compound 0.03162 µM) | relative viability (Bleomycin + Decitabine; first compound 0.1 µM) | relative viability (Bleomycin + Decitabine; first compound 0.3162 µM) | relative viability (Bleomycin + Decitabine; first compound 1 µM) | relative viability (Etoposide + OSI-027; first compound 0.01 µM) | relative viability (Etoposide + OSI-027; first compound 0.03162 µM) | relative viability (Etoposide + OSI-027; first compound 0.1 µM) | relative viability (Etoposide + OSI-027; first compound 0.3162 µM) | relative viability (Etoposide + OSI-027; first compound 1 µM) |
| --- | --- | --- | --- | --- | --- | --- | --- | --- | --- | --- | --- | --- | --- | --- | --- | --- | --- | --- | --- | --- |
| HARA | 0.401 | 0.505 | 0.454 | 0.3 | 0.176 | 0.938 | 0.952 | 0.974 | 0.54 | 0.36 | 0.513 | 0.534 | 0.473 | 0.313 | 0.335 | 0.517 | 0.554 | 0.151 | 0.422 | 0.118 |
| PC-14 | 0.439 | 0.435 | 0.114 | 0.0634 | 0.0557 | 0.578 | 0.516 | 0.259 | 0.105 | 0.0849 | 0.153 | 0.158 | 0.0921 | 0.0512 | 0.0367 | 0.815 | 0.945 | 0.58 | 0.587 | 0.275 |
| NCI-H1755 | 0.67 | 0.727 | 0.706 | 0.718 | 0.427 | 0.771 | 0.841 | 0.827 | 0.593 | 0.567 | 0.667 | 0.706 | 0.651 | 0.561 | 0.506 | 0.69 | 0.659 | 0.609 | 0.641 | 0.585 |
| HCC-78 | 0.38 | 0.348 | 0.309 | 0.311 | 0.29 | 0.31 | 0.294 | 0.297 | 0.229 | 0.267 | 0.624 | 0.702 | 0.639 | 0.645 | 0.423 | 0.387 | 0.392 | 0.345 | 0.376 | 0.281 |
| IA-LM |  |  |  |  |  | 0.502 | 0.64 | 0.476 | 0.523 | 0.29 |  |  |  |  |  |  |  |  |  |  |
| NCI-H441 | 0.404 | 0.735 | 0.534 | 0.383 | 0.283 |  | 0.534 | 0.469 | 0.363 | 0.398 | 0.233 | 0.238 | 0.221 | 0.217 | 0.224 | 0.625 | 0.638 | 0.416 | 0.267 | 0.224 |
| NCI-H322M | 0.399 | 0.535 | 0.513 | 0.464 | 0.421 | 0.701 | 0.852 | 0.908 | 0.958 | 0.527 | 0.809 | 0.612 | 0.635 | 0.659 | 0.48 | 0.565 | 0.607 | 0.509 | 0.468 | 0.389 |
| NCI-H2087 |  | 0.515 | 0.379 | 0.123 | 0.126 | 0.617 | 0.771 | 0.735 | 0.303 | 0.274 | 0.261 | 0.27 | 0.229 | 0.144 | 0.183 | 0.514 | 0.59 | 0.364 | 0.386 | 0.173 |
| NCI-H1793 | 0.271 | 0.311 | 0.249 | 0.156 | 0.138 |  |  |  |  |  | 0.483 | 0.472 | 0.37 | 0.175 | 0.246 | 0.243 | 0.325 |  | 0.246 | 0.209 |
| NCI-H2228 | 0.473 | 0.467 | 0.534 | 0.264 | 0.164 | 0.393 | 0.362 | 0.488 | 0.318 | 0.327 |  |  |  |  |  | 0.499 | 0.787 | 0.276 | 0.481 | 0.164 |
| NCI-H522 | 0.662 | 0.619 | 0.593 | 0.419 | 0.432 |  |  |  |  |  | 0.736 | 0.777 | 0.608 | 0.405 | 0.399 | 0.647 | 0.77 | 0.657 | 0.709 | 0.71 |
| NCI-H1299 |  |  |  |  |  | 0.896 | 0.943 | 0.715 | 0.402 | 0.331 |  |  |  |  |  |  |  |  |  |  |
| NCI-H1648 | 0.274 |  | 0.257 | 0.246 | 0.274 |  |  |  |  |  | 0.412 | 0.387 | 0.466 | 0.467 | 0.334 |  | 0.269 | 0.253 | 0.289 | 0.292 |
| NCI-H2342 | 0.676 | 0.634 | 0.598 | 0.507 | 0.511 |  |  |  |  |  | 0.692 | 0.624 | 0.619 | 0.547 | 0.556 | 0.707 | 0.649 | 0.51 | 0.402 | 0.352 |
| SW 900 | 0.428 | 0.336 | 0.425 | 0.15 | 0.134 |  |  |  |  |  | 0.377 | 0.406 | 0.334 | 0.234 | 0.244 | 0.448 | 0.563 | 0.367 | 0.333 | 0.129 |
| NCI-H1395 | 0.533 | 0.647 | 0.516 | 0.367 | 0.404 |  |  |  |  |  | 0.563 | 0.593 | 0.513 | 0.394 | 0.305 | 0.625 | 0.759 | 0.506 | 0.605 | 0.469 |
| A549 |  |  |  |  |  | 0.601 | 0.562 | 0.339 | 0.0813 | 0.0619 | 0.234 | 0.137 | 0.218 | 0.0867 | 0.0646 |  |  |  |  |  |
| NCI-H1563 | 0.67 | 0.806 | 0.657 | 0.577 | 0.581 | 0.714 | 0.694 | 0.723 | 0.594 | 0.518 |  |  |  |  |  | 0.738 | 0.781 | 0.756 | 0.61 | 0.466 |
